Source: patent publication US5041567A, “Antibacterial monic acid derivatives” (Beecham Group plc, priority 1982, dated 1991)
Values after ≈ are worked out from the molar mass of the structure shown. Like-named read-outs stand apart in the source and are kept apart here.

How the values were obtained:
[1] = tested on: M. suipneumoniae ATCC 25095; assay: MIC against mycoplasma in vitro; type: cell-based; conditions: Mesomycoplasma hyopneumoniae, ATCC25095, 144 h
M. suipneumoniae MS 16 = assay: MIC against mycoplasma in vitro; type: cell-based; conditions: Mesomycoplasma hyopneumoniae, MS16, 144 h
M. suipneumoniae JF 435 = assay: MIC against mycoplasma in vitro; type: cell-based; conditions: Mesomycoplasma hyopneumoniae, JF435, 144 h
Staph. aureus W2827 = assay: MIC against human bacteria in vitro; type: cell-based; conditions: Staphylococcus aureus; Staph. aureus W2827; 5% chocolated horse blood agar, 18 hours; read-out: MIC
Strep. agalactiae SPA1 = assay: MIC against veterinary bacteria in vitro; conditions: Streptococcus agalactiae, SPA1, 18 h
Method: (§1) The activity of the compounds of the Examples against various veterinarily important bacteria, was assayed in vitro using two-fold serial dilutions in Diagnostic Sensitivity Test Agar inoculated with 10^4 organisms.

M. suipneumoniae Str. 11 = assay: MIC against mycoplasma in vitro; type: cell-based; conditions: Mesomycoplasma hyopneumoniae
Strep. agalactiae 2788-B = assay: MIC against human bacteria in vitro; type: cell-based; conditions: Streptococcus agalactiae; Strep. agalactiae 2788-B; 5% chocolated horse blood agar, 18 hours; read-out: MIC
[2] = tested on: M. bovigenitalium ATCC 14173; assay: MIC against mycoplasma in vitro; type: cell-based; conditions: 144 h; M. bovigenitalium ATCC 14173; 6 days, 37° C.; read-out: MIC
M. hyorhinis ATCC 25021 = assay: MIC against mycoplasma in vitro; type: cell-based; conditions: Mesomycoplasma hyorhinis, ATCC25021, 144 h
M. suipneumoniae TAM 6N = assay: MIC against mycoplasma in vitro; type: cell-based; conditions: Mesomycoplasma hyopneumoniae, TAM6N, 144 h
[3] = tested on: Corynebacterium pyogenes CY1; assay: MIC against veterinary bacteria in vitro; conditions: CY1, 18 h
Method: as §1

[4] = tested on: Staph. aureus B4 (pen. resistant); assay: MIC against veterinary bacteria in vitro; conditions: Staphylococcus aureus, 18 h
Method: as §1

K. aerogenes A = assay: MIC against human bacteria in vitro; type: cell-based; conditions: Klebsiella aerogenes
[5] = tested on: Ps. aeruginosa NCTC 10662; assay: MIC against human bacteria in vitro; type: cell-based; conditions: Pseudomonas aeruginosa
S. dublin S7 = assay: MIC against veterinary bacteria in vitro; conditions: Salmonella enterica, S7, 18 h
Method: as §1

Bacillus subtilis 6633 = assay: MIC against human bacteria in vitro; type: cell-based
[6] = tested on: Neisseria catarrhalis 1502; assay: MIC against human bacteria in vitro; type: cell-based
[7] = tested on: Haemophilus influenzae Wy21; assay: MIC against human bacteria in vitro; type: cell-based; conditions: Haemophilus influenzae, WY21, 18 h
M. suipneumoniae NB12 = assay: MIC against mycoplasma in vitro; type: cell-based; conditions: Mesomycoplasma hyopneumoniae
[8] = tested on: Strep. suis (group D) SPS11; assay: MIC against veterinary bacteria in vitro; conditions: Streptococcus suis, 18 h
Method: as §1

Strep. uberis SPU1 = assay: MIC against veterinary bacteria in vitro; conditions: Streptococcus uberis, SPU1, 18 h
Method: as §1

[9] = tested on: Pasteurella multocida 1633; assay: MIC against human bacteria in vitro; type: cell-based
Staph. aureus Oxford = assay: MIC against human bacteria in vitro; type: cell-based; conditions: Staphylococcus aureus; Staph. aureus Oxford; 5% chocolated horse blood agar, 18 hours; read-out: MIC
P. mirabilis 889 = assay: MIC against human bacteria in vitro; type: cell-based
[10] = tested on: Strep. pyogenes R80/421-A; assay: MIC against human bacteria in vitro; type: cell-based; conditions: Streptococcus pyogenes; Strep. pyogenes R80/421-A; 5% chocolated horse blood agar, 18 hours; read-out: MIC
[11] = tested on: M. suipneumoniae J2206/183^b; assay: MIC against mycoplasma in vitro; type: cell-based; conditions: Mesomycoplasma hyopneumoniae, 144 h
Staph. aureus Russell = assay: MIC against human bacteria in vitro; type: cell-based; conditions: Staphylococcus aureus; Staph. aureus Russell; 5% chocolated horse blood agar, 18 hours; read-out: MIC
[12] = tested on: Corynebacterium xerosis 9755; assay: MIC against human bacteria in vitro; type: cell-based
Strep. spp. 64/848-C = assay: MIC against human bacteria in vitro; type: cell-based
Strep. faecalis I = assay: MIC against human bacteria in vitro; type: cell-based; conditions: Enterococcus faecalis
M. dispar NCTC 10125 = assay: MIC against mycoplasma in vitro; type: cell-based; conditions: 144 h; M. dispar NCTC 10125; 6 days, 37° C.; read-out: MIC
Past. multocida PA1 = assay: MIC against veterinary bacteria in vitro; conditions: Pasteurella multocida, PA1, 18 h
Method: as §1

[13] = tested on: M. hyosynoviae ATCC 25591; assay: MIC against mycoplasma in vitro; type: cell-based; conditions: 144 h
E. coli ESS = assay: MIC against human bacteria in vitro; type: cell-based; conditions: Escherichia coli
Sarcina lutea 8340 = assay: MIC against human bacteria in vitro; type: cell-based; conditions: Micrococcus luteus, 8340, 18 h

For `C/C(=C\c1cc(C)on1)C[C@@H]1OC[C@H](C[C@@H]2O[C@H]2[C@@H](C)[C@H](C)O)[C@@H](O)[C@H]1O` [Example 33, 5-Methyl-3-(1-normon-2-yl) isoxazole A], the MIC [1] was 1 µg/mL (≈ 2.62 µM), the MIC (M. suipneumoniae MS 16) was 1 µg/mL (≈ 2.62 µM) and the MIC (M. suipneumoniae JF 435) was 2.5 µg/mL (≈ 6.55 µM). The MIC (Staph. aureus W2827) was 8 µg/mL (≈ 21 µM), the MIC (Strep. agalactiae SPA1) was 10 µg/mL (≈ 26.2 µM) and the MIC (M. suipneumoniae Str. 11; STR.11, 144 h) was 1 µg/mL (≈ 2.62 µM). It also gave an MIC (Strep. agalactiae 2788-B) of 64 µg/mL (≈ 168 µM), an MIC [2] of 0.5 µg/mL (≈ 1.31 µM) and an MIC (M. hyorhinis ATCC 25021) of 1 µg/mL (≈ 2.62 µM). For the same compound, the MIC (M. suipneumoniae TAM 6N) was 2.5 µg/mL (≈ 6.55 µM), the MIC [3] was greater than 80 µg/mL and the MIC [4] was 1.3 µg/mL (≈ 3.41 µM). The MIC (K. aerogenes A; K. aerogenes A, 5% chocolated horse blood agar, 18 hours, read-out: MIC) was greater than 128 µg/mL, the MIC ([5]; NCTC10662, Ps. aeruginosa NCTC 10662, 5% chocolated horse blood agar, 18 hours, read-out: MIC) was greater than 128 µg/mL and the MIC (S. dublin S7) was greater than 80 µg/mL. The MIC (Bacillus subtilis 6633; Bacillus subtilis 6633, 5% chocolated horse blood agar, 18 hours, read-out: MIC) was 1 µg/mL (≈ 2.62 µM), the MIC ([6]; Neisseria catarrhalis 1502, 5% chocolated horse blood agar, 18 hours, read-out: MIC) was 4 µg/mL (≈ 10.5 µM) and the MIC [7] was 0.25 µg/mL (≈ 0.655 µM). The MIC (M. suipneumoniae NB12; NB12, 144 h) was 2.5 µg/mL (≈ 6.55 µM), the MIC [8] was greater than 80 µg/mL and the MIC (Strep. uberis SPU1) was 5 µg/mL (≈ 13.1 µM). For the same compound, the MIC ([9]; Pasteurella multocida 1633, 5% chocolated horse blood agar, 18 hours, read-out: MIC) was 2 µg/mL (≈ 5.24 µM), the MIC (Staph. aureus Oxford) was 8 µg/mL (≈ 21 µM) and the MIC (P. mirabilis 889; Proteus mirabilis, P. mirabilis 889, 5% chocolated horse blood agar, 18 hours, read-out: MIC) was greater than 128 µg/mL. The MIC [10] was 8 µg/mL (≈ 21 µM), the MIC [11] was 1 µg/mL (≈ 2.62 µM) and the MIC (Staph. aureus Russell) was 8 µg/mL (≈ 21 µM). For the same compound, the MIC ([12]; Corynebacterium xerosis 9755, 5% chocolated horse blood agar, 18 hours, read-out: MIC) was greater than 128 µg/mL, the MIC (Strep. spp. 64/848-C; Strep. spp. 64/848-C, 5% chocolated horse blood agar, 18 hours, read-out: MIC) was 32 µg/mL (≈ 83.9 µM) and the MIC (Strep. faecalis I; Strep. faecalis I, 5% chocolated horse blood agar, 18 hours, read-out: MIC) was greater than 128 µg/mL. For the same compound, the MIC (M. dispar NCTC 10125) was 0.5 µg/mL (≈ 1.31 µM), the MIC (Past. multocida PA1) was 1.3 µg/mL (≈ 3.41 µM) and the MIC [13] was 2.5 µg/mL (≈ 6.55 µM). For the same compound, the MIC (E. coli ESS; E. coli ESS, 5% chocolated horse blood agar, 18 hours, read-out: MIC) was 8 µg/mL (≈ 21 µM).
`COC(=O)CCCCCCCc1cnc(/C=C(\C)C[C@@H]2OC[C@H](C[C@@H]3O[C@H]3[C@@H](C)[C@H](C)O)[C@@H](O)[C@H]2O)o1` [Example 7, 5-(7-Methoxycarbonylheptyl)-2-(1-normon-2-yl)oxazole A] showed an MIC ([1]; M. suipneumoniae ATCC 25095, 6 days, 37° C., read-out: MIC) of 10 µg/mL (≈ 19.1 µM), an MIC (M. suipneumoniae MS 16; M. suipneumoniae MS 16, 6 days, 37° C., read-out: MIC) of 10 µg/mL (≈ 19.1 µM) and an MIC (M. suipneumoniae JF 435; M. suipneumoniae JF 435, 6 days, 37° C., read-out: MIC) greater than 10 µg/mL. The MIC (Staph. aureus W2827) was 25 µg/mL (≈ 47.7 µM), the MIC (Strep. agalactiae SPA1) was 5 µg/mL (≈ 9.55 µM) and the MIC (M. suipneumoniae Str. 11; 144 h, M. suipneumoniae Str. 11, 6 days, 37° C., read-out: MIC) was 10 µg/mL (≈ 19.1 µM). It also gave an MIC (Strep. agalactiae 2788-B) of 25 µg/mL (≈ 47.7 µM), an MIC [2] of 1 µg/mL (≈ 1.91 µM) and an MIC (M. hyorhinis ATCC 25021; M. hyorhinis ATCC 25021, 6 days, 37° C., read-out: MIC) of 10 µg/mL (≈ 19.1 µM). For the same compound, the MIC (M. suipneumoniae TAM 6N; M. suipneumoniae TAM 6N, 6 days, 37° C., read-out: MIC) was greater than 10 µg/mL, the MIC [3] was greater than 80 µg/mL and the MIC [4] was 5 µg/mL (≈ 9.55 µM). It also gave an MIC (K. aerogenes A; 18 h) greater than 100 µg/mL, an MIC ([5]; NCTC10662, 18 h) greater than 100 µg/mL and an MIC (S. dublin S7) greater than 80 µg/mL. For the same compound, the MIC (Bacillus subtilis 6633; Bacillus subtilis, 6633, 18 h) was 2.5 µg/mL (≈ 4.77 µM), the MIC ([6]; Neisseria, 1502, 18 h) was 5 µg/mL (≈ 9.55 µM) and the MIC [7] was 1 µg/mL (≈ 1.91 µM). The MIC (M. suipneumoniae NB12; 144 h, M. suipneumoniae NB12, Friis broth, 0.9% agarose, 6 days, 37° C., read-out: MIC) was greater than 10 µg/mL, the MIC [8] was 80 µg/mL (≈ 153 µM) and the MIC (Strep. uberis SPU1) was 1.25 µg/mL (≈ 2.39 µM). The MIC ([9]; Pasteurella multocida, 1633, 18 h) was 2.5 µg/mL (≈ 4.77 µM), the MIC (P. mirabilis 889; Proteus mirabilis, 889, 18 h) was greater than 100 µg/mL and the MIC [10] was 25 µg/mL (≈ 47.7 µM). The MIC (Sarcina lutea 8340) was greater than 100 µg/mL, the MIC ([11]; M. suipneumoniae J2206/183^b, 6 days, 37° C., read-out: MIC) was greater than 10 µg/mL and the MIC (Staph. aureus Russell) was 25 µg/mL (≈ 47.7 µM). The MIC ([12]; Corynebacterium xerosis, 9755, 18 h) was greater than 100 µg/mL, the MIC (Strep. spp. 64/848-C; 18 h) was 10 µg/mL (≈ 19.1 µM) and the MIC (Strep. faecalis I; 18 h) was greater than 100 µg/mL. It also gave an MIC (M. dispar NCTC 10125) of 2.5 µg/mL (≈ 4.77 µM), an MIC (Past. multocida PA1) of 40 µg/mL (≈ 76.4 µM) and an MIC ([13]; M. hyosynoviae ATCC 25591, 6 days, 37° C., read-out: MIC) of 5 µg/mL (≈ 9.55 µM). The MIC (E. coli ESS; 18 h) was 0.5 µg/mL (≈ 0.955 µM).
